Literature values as cited in paper PMC2948132 (The Open Cardiovascular Medicine Journal, 2010).

Columns and labels:
[1] = system: classical or alternative C3 convertase; details: ref [19]-[22]
[2] = system: primate-derived complement; details: reference not given
[3] = system: complement-mediated ischemia/reperfusion injury

Substance: Compstatin
- C3 convertase inhibition, in words [1]: known to inhibit classical or alternative C3 convertase by preventing C3 cleavage
- species specificity of complement inhibition, in words [2]: only inhibits primate-derived complement

Substance: TP20: soluble CR1 decorated with fucosylated tetrasaccharide sialyl Lewisx
- efficacy in animal models of transplantation and IR injury, in words ([3]; ref [11],[14],[49],[50]): effective

Substance: sCR1: Soluble complement receptor1
- protection against IRI, in words ([3]; ref [45],[46]): successful in offering protection against IRI
